# Legend:
# S. aureus DSM 20231 = experiment: Bliss interaction score (quartile over a dose matrix) (fitness difference); higher = more antagonism (negative = synergy)
# Procedure, shortened: (§1)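 The Bliss score is observed minus expected fitness under the product model, reported as quartiles over technical, biological and donor/recipient replicates. Fitness is the OD595 at entry into stationary phase divided by the plate's robust no-drug mean and capped at 1. Single-drug fitness was inferred from combination data.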
# S. pneumoniae D39V [1] = experiment: as above
# Procedure, shortened: as §1
# S. aureus Newman = experiment: as above
# Procedure, shortened: as §1
# B. subtilis 168 = experiment: as above
# Procedure, shortened: as §1
# S. pneumoniae D39V [2] = experiment: fitness (endpoint OD595 vs no drug) (fraction); higher = more growth
# Procedure, shortened: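 Bacterial growth was followed in 384-well plates seeded at OD595 0.01, with 30 µl per well, or 55 µl for S. pneumoniae, in TSB, LB Lennox or CY at 37 °C. OD595 was read every 30 min for 14 h, and each reading had the first reading subtracted as background. Fitness is the background-corrected optical density at entry into stationary phase divided by the robust mean of the no-drug control wells. This ratio is capped at 1.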
# 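For Bliss interaction score (quartile over a dose matrix) in this document: first quartile when negative (synergy) and third quartile when positive (antagonism).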
structure (smiles),measurement,setting,value
O=C(O[C@@H]1Cc2c(O)cc(O)cc2O[C@@H]1c1cc(O)c(O)c(O)c1)c1cc(O)c(O)c(O)c1 [EGCG] + C[C@@H](O)[C@H]1C(=O)N2C(C(=O)O)=C(SCCNC=N)C[C@H]12 [Imipenem],Bliss interaction score,S. aureus DSM 20231,-0.0357
same,Bliss interaction score,S. pneumoniae D39V [1],0.0607
same,Bliss interaction score,S. aureus Newman,0.0318
same,Bliss interaction score,B. subtilis 168,0.185
same,fitness,"S. pneumoniae D39V [2]; first compound 12.5 µg/mL, partner 0.005 µg/mL",0.952
same,fitness,"S. pneumoniae D39V [2]; first compound 12.5 µg/mL, partner 0.0065 µg/mL",0.863
same,fitness,"S. pneumoniae D39V [2]; first compound 12.5 µg/mL, partner 0.01 µg/mL",0.875
same,fitness,"S. pneumoniae D39V [2]; first compound 12.5 µg/mL, partner 0.013 µg/mL",0.78
same,fitness,"S. pneumoniae D39V [2]; first compound 12.5 µg/mL, partner 0.02 µg/mL",0.9
same,fitness,"S. pneumoniae D39V [2]; first compound 12.5 µg/mL, partner 0.026 µg/mL",0.563
same,fitness,"S. pneumoniae D39V [2]; first compound 25 µg/mL, partner 0.005 µg/mL",0.985
same,fitness,"S. pneumoniae D39V [2]; first compound 25 µg/mL, partner 0.0065 µg/mL",0.833
same,fitness,"S. pneumoniae D39V [2]; first compound 25 µg/mL, partner 0.01 µg/mL",0.971
same,fitness,"S. pneumoniae D39V [2]; first compound 25 µg/mL, partner 0.013 µg/mL",0.959
same,fitness,"S. pneumoniae D39V [2]; first compound 25 µg/mL, partner 0.02 µg/mL",0.842
same,fitness,"S. pneumoniae D39V [2]; first compound 50 µg/mL, partner 0.005 µg/mL",0.912
same,fitness,"S. pneumoniae D39V [2]; first compound 50 µg/mL, partner 0.0065 µg/mL",0.896
same,fitness,"S. pneumoniae D39V [2]; first compound 50 µg/mL, partner 0.01 µg/mL",0.939
same,fitness,"S. pneumoniae D39V [2]; first compound 50 µg/mL, partner 0.013 µg/mL",0.799
same,fitness,"S. pneumoniae D39V [2]; first compound 50 µg/mL, partner 0.02 µg/mL",≥ 1
same,fitness,"S. pneumoniae D39V [2]; first compound 50 µg/mL, partner 0.026 µg/mL",0.899
CC[C@H]1OC(=O)[C@H](C)[C@@H](O[C@H]2C[C@@](C)(OC)[C@@H](O)[C@H](C)O2)[C@H](C)[C@@H](O[C@@H]2O[C@H](C)C[C@H](N(C)C)[C@H]2O)[C@](C)(OC)C[C@@H](C)C(=O)[C@H](C)[C@@H](O)[C@]1(C)O [Clarithromycin] + CN[C@@H]1[C@H](O)[C@H](NC)[C@H]2O[C@@]3(O)C(=O)C[C@@H](C)O[C@H]3O[C@@H]2[C@H]1O [Spectinomycin],Bliss interaction score,S. aureus DSM 20231,-0.142
same,Bliss interaction score,S. pneumoniae D39V [1],-0.0344
same,Bliss interaction score,S. aureus Newman,-0.181
same,Bliss interaction score,B. subtilis 168,-0.0725
same,fitness,"S. pneumoniae D39V [2]; first compound 0.007812 µg/mL, partner 4 µg/mL, one replicate",0.836
same,fitness,"S. pneumoniae D39V [2]; first compound 0.007812 µg/mL, partner 8 µg/mL, one replicate",0.741
same,fitness,"S. pneumoniae D39V [2]; first compound 0.007812 µg/mL, partner 16 µg/mL, one replicate",0.644
same,fitness,"S. pneumoniae D39V [2]; first compound 0.01562 µg/mL, partner 4 µg/mL, one replicate",0.755
same,fitness,"S. pneumoniae D39V [2]; first compound 0.01562 µg/mL, partner 8 µg/mL, one replicate",0.72
same,fitness,"S. pneumoniae D39V [2]; first compound 0.01562 µg/mL, partner 16 µg/mL, one replicate",0.664
same,fitness,"S. pneumoniae D39V [2]; first compound 0.03125 µg/mL, partner 4 µg/mL, one replicate",0.669
same,fitness,"S. pneumoniae D39V [2]; first compound 0.03125 µg/mL, partner 8 µg/mL, one replicate",0.658
same,fitness,"S. pneumoniae D39V [2]; first compound 0.03125 µg/mL, partner 16 µg/mL, one replicate",0.528
same,fitness,"S. pneumoniae D39V [2]; first compound 0.0625 µg/mL, partner 4 µg/mL, one replicate",0.725
same,fitness,"S. pneumoniae D39V [2]; first compound 0.0625 µg/mL, partner 8 µg/mL, one replicate",0.676
same,fitness,"S. pneumoniae D39V [2]; first compound 0.07 µg/mL, partner 4 µg/mL",0.138
same,fitness,"S. pneumoniae D39V [2]; first compound 0.07 µg/mL, partner 8 µg/mL",0.138
same,fitness,"S. pneumoniae D39V [2]; first compound 0.07 µg/mL, partner 16 µg/mL",0.114
same,fitness,"S. pneumoniae D39V [2]; first compound 0.125 µg/mL, partner 4 µg/mL, one replicate",0.326
same,fitness,"S. pneumoniae D39V [2]; first compound 0.125 µg/mL, partner 8 µg/mL, one replicate",0.221
same,fitness,"S. pneumoniae D39V [2]; first compound 0.14 µg/mL, partner 4 µg/mL",0.0851
same,fitness,"S. pneumoniae D39V [2]; first compound 0.14 µg/mL, partner 8 µg/mL",0.0752
same,fitness,"S. pneumoniae D39V [2]; first compound 0.14 µg/mL, partner 16 µg/mL",0.0949
same,fitness,"S. pneumoniae D39V [2]; first compound 0.25 µg/mL, partner 4 µg/mL, one replicate",0.156
same,fitness,"S. pneumoniae D39V [2]; first compound 0.25 µg/mL, partner 8 µg/mL, one replicate",0.114
same,fitness,"S. pneumoniae D39V [2]; first compound 0.28 µg/mL, partner 4 µg/mL",0.0564
same,fitness,"S. pneumoniae D39V [2]; first compound 0.28 µg/mL, partner 8 µg/mL",0.0774
same,fitness,"S. pneumoniae D39V [2]; first compound 0.28 µg/mL, partner 16 µg/mL",0.0947

# — the supplement of paper PMC10627819
